Reference: article PMC12133982, “Predominant T-cell epitopes of SARS-CoV-2 restricted by multiple prevalent HLA-B and HLA-C allotypes in Northeast Asia” (Frontiers in Immunology, 2025)
Peptide text beside a SMILES is read from it.

Columns and labels:
HLA-C0602 = HLA-C0602 (Homo sapiens, UniProt P10321, A176E/A330V/C350S/L171W/L180W/L218V/M285V/M309V/M331V/N104K/P208H/Q277E/Q291P/R121W/S101N/S123Y/S297R/T329A/T363A/V319A/V328M); assay: Competitive peptide binding assay, CIR-C0602
HLA-C0702 = HLA-C0702 (Homo sapiens, UniProt P10321); assay: Competitive peptide binding assay, CIR-C0702
HLA-B1501 = HLA-B1501 (Homo sapiens, UniProt P01889, A329T/A93T/A95T/C349S/D201E/D98Y/E187L/E204Q/E69M/E70A/K202T/N87E/Q94N/R155S/R180W/S121R/S35A/S48A/V306I/V36M/Y140S/Y91S); assay: Competitive peptide binding assay, CIR-B1501; conditions: HMy2.CIR-B1501 cells, reference Cy5-[…], class from inhibition at 5 and 15 μM, flow cytometry MFI; read-out: Binding affinity with HLA-B1501
Method: (§1) Then, competitive peptide binding assays were performed.

HLA-B5801 = HLA-B5801 (Homo sapiens, UniProt P01889, A329T/C349S/D201E/D98Y/E176V/E187L/E204Q/E69T/G107R/I218V/I90N/K202T/L105A/L119I/N104I/N87E/Q89R/Q94S/R106L/R155S/R180L/R86G/S101N/S121R/S35A/S48A/T118I/V127L/V306I/V36M/Y140S/Y91M); assay: Competitive peptide binding assay, CIR-B5801; conditions: HMy2.CIR-B5801 cells, reference Cy5-[…], class from inhibition at 5 and 15 μM, flow cytometry MFI; read-out: Binding affinity with HLA-B5801
Method: as §1

HLA-B1302 = HLA-B1302 (Homo sapiens, UniProt P01889, A65T/A93T/A95T/D138N/D201E/D98Y/E176V/E204Q/E69M/E70A/G107R/K202T/L105A/L119W/N104T/N87E/Q94N/R106L/R155S/R169L/R180L/S101N/S121T/S35A/S48T/V127L/V36M/Y140L/Y91S); assay: Competitive peptide binding assay, CIR-B1302; conditions: HMy2.CIR-B1302 cells, reference Cy5-MMWYWGPSL, class from inhibition at 5 and 15 μM, flow cytometry MFI; read-out: Binding affinity with HLA-B1302
Method: as §1

HLA-B3501 = HLA-B3501 (Homo sapiens, UniProt P01889, A329T/A93T/A95T/C349S/D201E/D98Y/E176V/E187L/E204Q/E69T/I218V/K202T/L119I/Q94N/R155S/R180L/S121R/S35A/S48A/T118I/V127L/V306I/V36M/Y140S/Y91F); assay: Competitive peptide binding assay, CIR-B3501; conditions: HMy2.CIR-B3501 cells, reference Cy5-[…], class from inhibition at 5 and 15 μM, flow cytometry MFI; read-out: Binding affinity with HLA-B3501
Method: as §1

HLA-B4601 = HLA-B4601 (Homo sapiens, UniProt P01889, A329T/A93R/C349S/D201E/E100V/E187L/E204Q/E69M/E70A/I90K/K202T/N87E/R155S/R180W/S121R/S35A/S48A/V306I/V36M/Y140S); assay: Competitive peptide binding assay, CIR-B4601; conditions: for IC50: HMy2.CIR-B4601 cells, reference Cy5-[…], class from inhibition at 5 and 15 μM, flow cytometry MFI, read-out: Binding affinity with HLA-B4601; for inhibition at 5 µM: read-out: Inhibition % of Cy5-reference peptide binding, CIR-B4601, 5μM peptide; for inhibition at 15 µM: read-out: Inhibition % of Cy5-reference peptide binding, CIR-B4601, 15μM peptide
Method: as §1

HLA-B1502 = HLA-B1502 (Homo sapiens, UniProt P01889, A329T/A93T/A95T/C349S/D201E/D98Y/E187L/E204Q/E69M/E70A/H137Y/K202T/L119I/Q94N/R155S/R180L/S121R/S35A/S48A/T118I/V306I/V36M/Y140S/Y91S); assay: Competitive peptide binding assay, CIR-B1502; conditions: HMy2.CIR-B1502 cells, reference Cy5-[…], class from inhibition at 5 and 15 μM, flow cytometry MFI; read-out: Binding affinity with HLA-B1502
Method: as §1

HLA-B1301 = HLA-B1301 (Homo sapiens, UniProt P01889, A65T/A93T/A95T/D138N/D201E/D98Y/E176V/E204Q/E69M/E70A/G107R/K202T/L105A/L119I/N104T/N87E/Q94N/R106L/R155S/R169L/R180L/S101N/S121R/S35A/S48T/T118I/V127L/V36M/Y140L/Y91S); assay: Competitive peptide binding assay, CIR-B1301; conditions: HMy2.CIR-B1301 cells, reference Cy5-[…], class from inhibition at 5 and 15 μM, flow cytometry MFI; read-out: Binding affinity with HLA-B1301
Method: as §1

SMILES: CC[C@H](C)[C@H](NC(=O)[C@@H]1CCCN1C(=O)[C@@H](NC(=O)[C@H](Cc1c[nH]cn1)NC(=O)[C@H](CCCCN)NC(=O)[C@H](CO)NC(=O)[C@@H](N)Cc1ccc(O)cc1)[C@@H](C)O)C(=O)N[C@@H](CC(N)=O)C(=O)N[C@@H](CC(C)C)C(=O)O [Epitope M127] (H-YSKHTPINL-OH; N-terminus and C-terminus assumed)
- IC50 (HLA-C0602): > 15 µM
- IC50 (HLA-C0702): > 15 µM

SMILES: CC(C)C[C@H](N)C(=O)N1CCC[C@H]1C(=O)N[C@@H](CC(N)=O)C(=O)N[C@@H](CC(N)=O)C(=O)N[C@H](C(=O)N[C@@H](C)C(=O)N[C@@H](CO)C(=O)N[C@@H](Cc1c[nH]c2ccccc12)C(=O)N[C@@H](Cc1ccccc1)C(=O)O)[C@@H](C)O [Epitope Y17] (H-LPNNTASWF-OH; N-terminus and C-terminus assumed)
- IC50 (HLA-B1501): > 15 µM
- IC50 (HLA-B5801): > 15 µM
- IC50 (HLA-B1302): > 15 µM
- IC50 (HLA-B3501): < 5 µM

SMILES: CSCC[C@H](NC(=O)[C@H](CO)NC(=O)[C@H](CCCNC(=N)N)NC(=O)[C@@H](NC(=O)[C@H](CCCNC(=N)N)NC(=O)[C@H](C)NC(=O)[C@@H](N)Cc1ccccc1)[C@@H](C)O)C(=O)N[C@@H](Cc1c[nH]c2ccccc12)C(=O)N[C@@H](CO)C(=O)N[C@@H](Cc1ccccc1)C(=O)O [Epitope Y47] (H-FARTRSMWSF-OH; N-terminus and C-terminus assumed)
- IC50 (HLA-B5801): > 15 µM
- IC50 (HLA-B1302): > 15 µM
- IC50 (HLA-B3501): < 5 µM
- IC50 (HLA-B4601): > 15 µM
- IC50 (HLA-B1502): < 5 µM

SMILES: C[C@H](NC(=O)[C@H](Cc1ccc(O)cc1)NC(=O)[C@H](C)NC(=O)[C@@H](N)Cc1ccccc1)C(=O)N[C@@H](CC(N)=O)C(=O)N[C@@H](CCCNC(=N)N)C(=O)N[C@@H](CC(N)=O)C(=O)N[C@@H](CCCNC(=N)N)C(=O)N[C@@H](Cc1ccccc1)C(=O)O [Epitope Y49] (H-FAYANRNRF-OH; N-terminus and C-terminus assumed)
- IC50 (HLA-B1501): > 15 µM
- IC50 (HLA-B5801): 5 to 15 µM
- IC50 (HLA-B1302): > 15 µM
- IC50 (HLA-B3501): < 5 µM

SMILES: CC[C@H](C)[C@H](NC(=O)[C@H](CO)NC(=O)[C@H](CCC(N)=O)NC(=O)[C@H](CO)NC(=O)[C@H](C)NC(=O)[C@@H](N)C(C)C)C(=O)N[C@H](C(=O)N[C@@H](C)C(=O)N[C@@H](Cc1ccc(O)cc1)C(=O)O)[C@@H](C)CC [Epitope Y151] (H-VASQSIIAY-OH; N-terminus and C-terminus assumed)
- IC50 (HLA-B1501): > 15 µM
- IC50 (HLA-B5801): > 15 µM
- IC50 (HLA-B1302): < 5 µM
- IC50 (HLA-B3501): < 5 µM

SMILES: CC[C@H](C)[C@H](NC(=O)[C@H](CC(C)C)NC(=O)[C@@H](N)CCC(=O)O)C(=O)N[C@@H](CCCNC(=N)N)C(=O)N[C@@H](CCC(N)=O)C(=O)NCC(=O)N[C@H](C(=O)N[C@@H](CC(=O)O)C(=O)N[C@@H](Cc1ccc(O)cc1)C(=O)O)[C@@H](C)O [Epitope Y162] (H-ELIRQGTDY-OH; N-terminus and C-terminus assumed)
- IC50 (HLA-B1501): > 15 µM
- IC50 (HLA-B5801): 5 to 15 µM
- IC50 (HLA-B1302): > 15 µM
- IC50 (HLA-B3501): > 15 µM
- IC50 (HLA-B4601): < 5 µM
- IC50 (HLA-B1502): 5 to 15 µM

SMILES: CC[C@H](C)[C@H](NC(=O)[C@@H](NC(=O)[C@H](CCC(=O)O)NC(=O)[C@H](CCC(=O)O)NC(=O)[C@@H](N)Cc1c[nH]cn1)[C@@H](C)O)C(=O)N[C@@H](Cc1ccc(O)cc1)C(=O)N[C@@H](CC(N)=O)C(=O)N[C@@H](CC(C)C)C(=O)N[C@@H](CC(C)C)C(=O)O [Epitope Y199] (H-HEETIYNLL-OH; N-terminus and C-terminus assumed)
- IC50 (HLA-B5801): 5 to 15 µM
- IC50 (HLA-B1302): 5 to 15 µM
- IC50 (HLA-B3501): < 5 µM
- IC50 (HLA-B4601): > 15 µM
- inhibition at 5 µM (HLA-B4601): 24.9%
- inhibition at 15 µM (HLA-B4601): 44.1%

SMILES: C[C@@H](O)[C@H](NC(=O)CNC(=O)[C@H](CCC(N)=O)NC(=O)[C@@H](N)CCCNC(=N)N)C(=O)N[C@@H](CC(=O)O)C(=O)N[C@@H](Cc1ccc(O)cc1)C(=O)N[C@@H](CCCCN)C(=O)N[C@@H](Cc1c[nH]cn1)C(=O)N[C@@H](Cc1c[nH]c2ccccc12)C(=O)O [Epitope Y222] (H-RQGTDYKHW-OH; N-terminus and C-terminus assumed)
- IC50 (HLA-B1501): 5 to 15 µM
- IC50 (HLA-B1302): > 15 µM

SMILES: C[C@H](NC(=O)[C@H](CO)NC(=O)[C@H](CO)NC(=O)[C@@H](N)Cc1ccc(O)cc1)C(=O)N[C@@H](CC(N)=O)C(=O)N[C@@H](CC(N)=O)C(=O)N[C@@H](CS)C(=O)N[C@H](C(=O)N[C@@H](Cc1ccccc1)C(=O)O)[C@@H](C)O [Epitope Y247] (H-YSSANNCTF-OH; N-terminus and C-terminus assumed)
- IC50 (HLA-B1501): > 15 µM
- IC50 (HLA-B5801): < 5 µM
- IC50 (HLA-B1302): 5 to 15 µM
- IC50 (HLA-B3501): > 15 µM
- IC50 (HLA-B1301): > 15 µM
- IC50 (HLA-B4601): 5 to 15 µM
- inhibition at 5 µM (HLA-B4601): 44.6%
- inhibition at 15 µM (HLA-B4601): 86.4%
- IC50 (HLA-B1502): > 15 µM

SMILES: CC(C)C[C@H](NC(=O)[C@H](CC(=O)O)NC(=O)[C@H](CCC(N)=O)NC(=O)[C@@H](NC(=O)[C@@H](N)CO)[C@@H](C)O)C(=O)N[C@@H](Cc1ccccc1)C(=O)N[C@@H](CC(C)C)C(=O)N1CCC[C@H]1C(=O)N[C@@H](Cc1ccccc1)C(=O)O [Epitope Y249] (H-STQDLFLPF-OH; N-terminus and C-terminus assumed)
- IC50 (HLA-B1501): 5 to 15 µM
- IC50 (HLA-B1302): > 15 µM
- IC50 (HLA-B1301): > 15 µM

SMILES: CC(C)[C@H](NC(=O)[C@@H](N)Cc1ccccc1)C(=O)N[C@@H](CO)C(=O)N[C@@H](CC(N)=O)C(=O)NCC(=O)N[C@H](C(=O)N[C@@H](Cc1c[nH]cn1)C(=O)N[C@@H](Cc1c[nH]c2ccccc12)C(=O)N[C@@H](Cc1ccccc1)C(=O)O)[C@@H](C)O [Epitope Y250] (H-FVSNGTHWF-OH; N-terminus and C-terminus assumed)
- IC50 (HLA-B1501): > 15 µM
- IC50 (HLA-B1302): > 15 µM
- IC50 (HLA-B3501): > 15 µM
- IC50 (HLA-B1502): > 15 µM

SMILES: CC(C)[C@H](NC(=O)CNC(=O)[C@H](Cc1c[nH]cn1)NC(=O)[C@@H]1CCCN1C(=O)[C@H](C)NC(=O)[C@H](CO)NC(=O)[C@H](CCC(N)=O)NC(=O)[C@@H]1CCCN1C(=O)[C@@H](N)Cc1ccccc1)C(=O)O [Epitope Y281] (H-FPQSAPHGV-OH; N-terminus and C-terminus assumed)
- IC50 (HLA-B1501): 5 to 15 µM
- IC50 (HLA-B1302): > 15 µM
- IC50 (HLA-B1301): > 15 µM
- IC50 (HLA-B1502): > 15 µM
